Assays:
Assay in all cases: KinomeScan kinase profiling
Assay type in all cases: binding
NEK9 = molecular target: T1, NEK9 (Homo sapiens, UniProt Q8TD19)
T1 construct: host or cells: T7 phage in E. coli host derived from BL21
Method in brief: (§1)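 Kinases were expressed as T7 phage fusions in a BL21-derived E. coli host and the cleared lysates were used. Ligand beads were blocked with biotin and buffer (1% BSA, 0.05% Tween 20, 1 mM DTT). Compounds came from 40× DMSO stocks, and phage in the eluates was titred by qPCR.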

MAP3K4 = molecular target: T2, MAP3K4 (Homo sapiens, UniProt Q9Y6R4)
T2 construct: host or cells: E. coli derived from BL21, infected with T7 phage
Method in brief: as §1

MYO3B = molecular target: T3, MYO3B (Homo sapiens, UniProt Q8WXR4)
T3 construct: host or cells: T7 phage in E. coli host derived from BL21
Method in brief: as §1

SIK2 = molecular target: T4, SIK2 (Homo sapiens, UniProt Q9H0K1)
T4 construct: host or cells: E. coli host derived from the BL21 strain, T7 phage lysate
Method in brief: as §1

IKK-epsilon = molecular target: T5, IKK-epsilon (Homo sapiens, UniProt Q14164)
T5 construct: host or cells: T7 phage in E. coli host derived from BL21
Method in brief: as §1

TSSK1B = molecular target: T6, TSSK1B (Homo sapiens, UniProt Q9BXA7)
T6 construct: purchased Ambit Biosciences Corp (KinomeScan); host or cells: E. coli host derived from the BL21 strain (T7 phage lysate)
Method in brief: as §1

ULK1 = molecular target: T7, ULK1 (Homo sapiens, UniProt O75385)
T7 construct: purchased Ambit Biosciences Corp (KinomeScan); host or cells: E. coli host derived from the BL21 strain (T7 phage lysate)
Method in brief: as §1

ACVR1 = molecular target: T8, ACVR1 (Homo sapiens, UniProt Q04771)
T8 construct: host or cells: E. coli host derived from BL21 (T7 phage lysate)
Method in brief: as §1

ERK5 = molecular target: T9, ERK5 (Homo sapiens, UniProt Q13164)
T9 construct: host or cells: E. coli host derived from BL21, T7 phage lysate
Method in brief: as §1

IGF1R = molecular target: T10, IGF1R (Homo sapiens, UniProt P08069)
T10 construct: host or cells: T7 phage in E. coli host derived from BL21
Method in brief: as §1

ABL1 (H396P) = molecular target: T11, ABL1 (H396P) (Homo sapiens, UniProt P00519, H396P)
T11 construct: host or cells: E. coli host derived from BL21 (T7 phage lysate)
Method in brief: as §1

NLK = molecular target: T12, NLK (Homo sapiens, UniProt Q9UBE8)
T12 construct: host or cells: E. coli host derived from the BL21 strain, infected with T7 phage
Method in brief: as §1

ULK3 = molecular target: T13, ULK3 (Homo sapiens, UniProt Q6PHR2)
T13 construct: purchased Ambit Biosciences Corp (KinomeScan); host or cells: E. coli host derived from the BL21 strain (T7 phage lysate)
Method in brief: as §1

PAK7 = molecular target: T14, PAK7 (Homo sapiens, UniProt Q9P286)
T14 construct: host or cells: E. coli host derived from the BL21 strain, infected with T7 phage
Method in brief: as §1

MAP3K3 = molecular target: T15, MAP3K3 (Homo sapiens, UniProt Q99759)
T15 construct: host or cells: E. coli derived from BL21, infected with T7 phage
Method in brief: as §1

[1] = molecular target: T16, EGFR (L747-T751del, Sins) (Homo sapiens, UniProt P00533, DEL747-750/T751S)
T16 construct: host or cells: E. coli host derived from BL21, T7 phage lysate
Method in brief: as §1

FGR = molecular target: T17, FGR (Homo sapiens, UniProt P09769)
T17 construct: host or cells: E. coli host derived from BL21, infected with T7 phage
Method in brief: as §1

TAK1 = molecular target: T18, TAK1 (Homo sapiens, UniProt O43318)
T18 construct: host or cells: E. coli host derived from the BL21 strain, T7 phage lysate
Method in brief: as §1

MYLK = molecular target: T19, MYLK (Homo sapiens, UniProt Q15746)
T19 construct: host or cells: T7 phage in E. coli host derived from BL21
Method in brief: as §1

GCN2 (Kin.Dom.2.S808G) = molecular target: T20, GCN2 (Kin.Dom.2.S808G) (Homo sapiens, UniProt Q9P2K8, S808G)
T20 construct: GCN2(KIN.DOM.2, S808G); host or cells: E. coli host derived from BL21, infected with T7 phage
Method in brief: as §1

MST4 = molecular target: T21, MST4 (Homo sapiens, UniProt Q9P289)
T21 construct: host or cells: T7 phage in E. coli host derived from BL21
Method in brief: as §1

PAK3 = molecular target: T22, PAK3 (Homo sapiens, UniProt O75914)
T22 construct: host or cells: E. coli host derived from the BL21 strain, infected with T7 phage
Method in brief: as §1

LOK = molecular target: T23, LOK (Homo sapiens, UniProt O94804)
T23 construct: host or cells: E. coli derived from BL21, infected with T7 phage
Method in brief: as §1

VEGFR2 = molecular target: T24, VEGFR2 (Homo sapiens, UniProt P35968)
T24 construct: purchased Ambit Biosciences Corp (KinomeScan); host or cells: E. coli host derived from the BL21 strain (T7 phage lysate)
Method in brief: as §1

T13 sequence (Q6PHR2 whole entry): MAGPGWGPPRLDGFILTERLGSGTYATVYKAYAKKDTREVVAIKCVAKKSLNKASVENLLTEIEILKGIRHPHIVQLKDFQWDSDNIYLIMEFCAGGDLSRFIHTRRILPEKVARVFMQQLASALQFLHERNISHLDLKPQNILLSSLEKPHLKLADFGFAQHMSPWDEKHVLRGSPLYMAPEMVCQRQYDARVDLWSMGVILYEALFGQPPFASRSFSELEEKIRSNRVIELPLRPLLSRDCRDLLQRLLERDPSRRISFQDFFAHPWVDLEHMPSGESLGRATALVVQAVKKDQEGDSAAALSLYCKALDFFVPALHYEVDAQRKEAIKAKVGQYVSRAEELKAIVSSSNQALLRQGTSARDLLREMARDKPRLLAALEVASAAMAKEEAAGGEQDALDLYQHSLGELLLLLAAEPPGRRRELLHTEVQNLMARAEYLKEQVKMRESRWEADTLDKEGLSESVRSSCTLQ
T20 sequence (Q9P2K8 590-1001 S808G limits assumed): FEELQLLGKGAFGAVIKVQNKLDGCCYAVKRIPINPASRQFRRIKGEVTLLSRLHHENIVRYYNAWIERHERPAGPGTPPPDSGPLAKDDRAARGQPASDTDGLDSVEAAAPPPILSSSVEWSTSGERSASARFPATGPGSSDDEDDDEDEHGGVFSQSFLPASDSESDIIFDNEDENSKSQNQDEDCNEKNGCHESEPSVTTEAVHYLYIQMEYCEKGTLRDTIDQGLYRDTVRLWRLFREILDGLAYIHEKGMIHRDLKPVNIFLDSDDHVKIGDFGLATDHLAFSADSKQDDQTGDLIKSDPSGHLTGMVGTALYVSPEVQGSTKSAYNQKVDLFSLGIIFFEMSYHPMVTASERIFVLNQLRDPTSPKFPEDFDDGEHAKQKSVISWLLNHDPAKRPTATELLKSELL
T5 sequence (Q14164 whole entry): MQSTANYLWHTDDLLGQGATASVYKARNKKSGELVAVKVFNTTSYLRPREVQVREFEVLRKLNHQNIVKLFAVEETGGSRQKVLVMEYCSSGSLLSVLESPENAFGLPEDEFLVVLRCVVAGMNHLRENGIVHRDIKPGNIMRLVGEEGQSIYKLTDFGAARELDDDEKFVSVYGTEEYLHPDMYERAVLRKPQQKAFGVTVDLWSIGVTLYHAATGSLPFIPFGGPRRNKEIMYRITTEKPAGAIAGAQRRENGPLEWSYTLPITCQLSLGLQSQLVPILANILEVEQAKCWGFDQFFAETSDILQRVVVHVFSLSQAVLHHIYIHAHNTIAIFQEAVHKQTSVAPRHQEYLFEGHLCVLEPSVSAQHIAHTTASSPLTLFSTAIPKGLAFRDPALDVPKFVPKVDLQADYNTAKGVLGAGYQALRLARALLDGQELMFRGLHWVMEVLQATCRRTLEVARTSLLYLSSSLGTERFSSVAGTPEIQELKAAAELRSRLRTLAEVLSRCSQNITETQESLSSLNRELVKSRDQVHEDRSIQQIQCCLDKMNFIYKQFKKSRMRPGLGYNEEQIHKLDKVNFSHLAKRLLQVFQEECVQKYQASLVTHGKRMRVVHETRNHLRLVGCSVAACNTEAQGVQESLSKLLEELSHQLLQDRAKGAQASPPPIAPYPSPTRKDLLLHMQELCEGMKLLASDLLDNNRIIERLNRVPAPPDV
T7 sequence (O75385 whole entry): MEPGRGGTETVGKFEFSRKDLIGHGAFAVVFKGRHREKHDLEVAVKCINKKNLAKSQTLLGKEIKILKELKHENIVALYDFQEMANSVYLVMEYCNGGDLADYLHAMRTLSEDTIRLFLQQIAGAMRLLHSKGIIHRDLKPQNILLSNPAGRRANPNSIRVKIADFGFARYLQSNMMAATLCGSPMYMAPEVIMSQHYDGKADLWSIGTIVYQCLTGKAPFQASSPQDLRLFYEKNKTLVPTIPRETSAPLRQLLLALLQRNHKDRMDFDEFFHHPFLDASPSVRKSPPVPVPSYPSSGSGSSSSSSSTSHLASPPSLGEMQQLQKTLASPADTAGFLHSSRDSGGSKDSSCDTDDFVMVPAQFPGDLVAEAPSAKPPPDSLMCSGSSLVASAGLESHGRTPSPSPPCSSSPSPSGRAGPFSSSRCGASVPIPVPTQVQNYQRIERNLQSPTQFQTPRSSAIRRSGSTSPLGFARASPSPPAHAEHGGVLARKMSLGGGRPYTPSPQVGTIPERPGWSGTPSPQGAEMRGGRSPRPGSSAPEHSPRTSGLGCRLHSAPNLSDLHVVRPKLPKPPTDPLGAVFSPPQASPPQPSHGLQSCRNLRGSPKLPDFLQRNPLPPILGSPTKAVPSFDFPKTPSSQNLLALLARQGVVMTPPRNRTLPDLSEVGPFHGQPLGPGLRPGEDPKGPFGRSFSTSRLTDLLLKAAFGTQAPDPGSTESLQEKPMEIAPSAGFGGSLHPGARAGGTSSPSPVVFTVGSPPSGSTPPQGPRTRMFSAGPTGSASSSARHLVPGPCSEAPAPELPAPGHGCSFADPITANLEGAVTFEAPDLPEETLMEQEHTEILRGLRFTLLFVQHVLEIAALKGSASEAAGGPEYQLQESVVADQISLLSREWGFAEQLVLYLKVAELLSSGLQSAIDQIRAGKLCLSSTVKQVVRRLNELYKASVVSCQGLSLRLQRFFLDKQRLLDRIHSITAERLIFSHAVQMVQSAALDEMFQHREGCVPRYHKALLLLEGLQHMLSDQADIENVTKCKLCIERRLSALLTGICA
T18 sequence (O43318 whole entry): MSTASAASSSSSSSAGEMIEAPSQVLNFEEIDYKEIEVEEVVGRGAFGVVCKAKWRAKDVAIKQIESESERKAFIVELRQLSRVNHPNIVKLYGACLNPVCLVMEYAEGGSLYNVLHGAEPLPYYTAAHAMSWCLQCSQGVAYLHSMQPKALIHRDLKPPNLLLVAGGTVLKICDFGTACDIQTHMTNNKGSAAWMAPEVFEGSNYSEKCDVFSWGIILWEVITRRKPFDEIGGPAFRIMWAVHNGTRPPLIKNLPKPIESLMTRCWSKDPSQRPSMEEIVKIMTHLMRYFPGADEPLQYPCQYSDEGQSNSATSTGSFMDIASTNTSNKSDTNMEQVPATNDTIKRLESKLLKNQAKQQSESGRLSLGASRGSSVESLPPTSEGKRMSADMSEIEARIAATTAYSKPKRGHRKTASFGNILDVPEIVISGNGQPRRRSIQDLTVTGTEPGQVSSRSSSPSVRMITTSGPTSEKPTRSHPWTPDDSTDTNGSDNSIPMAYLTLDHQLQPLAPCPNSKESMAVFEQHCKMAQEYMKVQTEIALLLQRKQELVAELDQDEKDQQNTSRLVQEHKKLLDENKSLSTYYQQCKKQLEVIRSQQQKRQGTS
T2 sequence (Q9Y6R4 whole entry): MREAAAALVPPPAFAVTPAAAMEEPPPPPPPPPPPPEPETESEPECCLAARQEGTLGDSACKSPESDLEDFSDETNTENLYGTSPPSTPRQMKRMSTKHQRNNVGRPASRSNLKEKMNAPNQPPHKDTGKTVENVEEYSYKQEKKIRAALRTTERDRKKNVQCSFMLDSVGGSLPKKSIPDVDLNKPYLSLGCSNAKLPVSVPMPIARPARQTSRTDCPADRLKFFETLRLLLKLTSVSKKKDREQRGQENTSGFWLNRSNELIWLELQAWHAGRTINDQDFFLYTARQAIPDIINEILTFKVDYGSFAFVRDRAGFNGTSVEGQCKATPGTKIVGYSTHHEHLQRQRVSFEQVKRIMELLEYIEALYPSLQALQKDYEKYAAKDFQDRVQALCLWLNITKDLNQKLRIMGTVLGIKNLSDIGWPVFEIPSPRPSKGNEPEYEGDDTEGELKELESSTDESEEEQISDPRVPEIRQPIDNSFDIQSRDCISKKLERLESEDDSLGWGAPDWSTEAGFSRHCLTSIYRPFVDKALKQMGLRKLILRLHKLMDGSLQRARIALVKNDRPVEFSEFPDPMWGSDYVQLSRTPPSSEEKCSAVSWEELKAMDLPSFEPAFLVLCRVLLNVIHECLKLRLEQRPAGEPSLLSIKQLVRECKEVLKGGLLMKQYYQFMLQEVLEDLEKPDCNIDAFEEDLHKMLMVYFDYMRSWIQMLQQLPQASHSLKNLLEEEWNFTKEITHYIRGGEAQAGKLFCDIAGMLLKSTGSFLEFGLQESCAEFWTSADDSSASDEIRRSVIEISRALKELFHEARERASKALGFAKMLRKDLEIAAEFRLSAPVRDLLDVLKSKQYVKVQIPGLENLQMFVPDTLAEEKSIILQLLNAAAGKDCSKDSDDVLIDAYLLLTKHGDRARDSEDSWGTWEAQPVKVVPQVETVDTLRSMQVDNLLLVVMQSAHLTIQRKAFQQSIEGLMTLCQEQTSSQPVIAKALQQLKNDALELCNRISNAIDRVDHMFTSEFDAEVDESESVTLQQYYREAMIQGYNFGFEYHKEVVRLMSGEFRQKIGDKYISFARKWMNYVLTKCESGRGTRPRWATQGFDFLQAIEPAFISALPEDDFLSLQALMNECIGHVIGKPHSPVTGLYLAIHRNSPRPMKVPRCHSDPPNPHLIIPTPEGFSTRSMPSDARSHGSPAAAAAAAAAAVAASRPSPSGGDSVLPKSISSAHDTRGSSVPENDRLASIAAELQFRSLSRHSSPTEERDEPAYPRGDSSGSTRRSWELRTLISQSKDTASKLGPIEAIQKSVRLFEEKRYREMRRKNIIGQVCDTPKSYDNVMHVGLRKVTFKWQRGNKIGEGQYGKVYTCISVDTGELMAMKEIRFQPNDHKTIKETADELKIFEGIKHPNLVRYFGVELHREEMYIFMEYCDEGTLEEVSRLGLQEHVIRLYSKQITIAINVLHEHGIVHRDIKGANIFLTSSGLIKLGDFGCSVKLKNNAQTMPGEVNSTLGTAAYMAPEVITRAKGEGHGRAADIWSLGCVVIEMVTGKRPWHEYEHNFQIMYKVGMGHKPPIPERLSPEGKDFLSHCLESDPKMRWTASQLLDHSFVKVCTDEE

## C#Cc1cccc(Nc2ncnc3cc(OC)c(OCCCN4CCOCC4)cc23)c1 [NRC-2694, N-(3-ethylnylphenyl)-7-methoxy-6-[3-(4-morpholinyl)propoxy]-4-quinazolinamine]
NEK9
  % Ctrl @ 10000 nM: 85 % Ctrl
MAP3K4
  % Ctrl @ 10000 nM: 53 % Ctrl
MYO3B
  % Ctrl @ 10000 nM: 100 % Ctrl
SIK2
  % Ctrl @ 10000 nM: 21 % Ctrl
IKK-epsilon
  % Ctrl @ 10000 nM: 75 % Ctrl
TSSK1B
  % Ctrl @ 10000 nM: 93 % Ctrl
ULK1
  % Ctrl @ 10000 nM: 100 % Ctrl
ACVR1
  % Ctrl @ 10000 nM: 61 % Ctrl
ERK5
  % Ctrl @ 10000 nM: 90 % Ctrl
IGF1R
  % Ctrl @ 10000 nM: 74 % Ctrl
ABL1 (H396P)
  % Ctrl @ 10000 nM: 34 % Ctrl
NLK
  % Ctrl @ 10000 nM: 55 % Ctrl
ULK3
  % Ctrl @ 10000 nM: 62 % Ctrl
PAK7
  % Ctrl @ 10000 nM: 63 % Ctrl
MAP3K3
  % Ctrl @ 10000 nM: 5.9 % Ctrl
[1]
  % Ctrl @ 10000 nM: 0 % Ctrl
FGR
  % Ctrl @ 10000 nM: 19 % Ctrl
TAK1
  % Ctrl @ 10000 nM: 66 % Ctrl
MYLK
  % Ctrl @ 10000 nM: 62 % Ctrl
GCN2 (Kin.Dom.2.S808G)
  % Ctrl @ 10000 nM: 12 % Ctrl
MST4
  % Ctrl @ 10000 nM: 29 % Ctrl
PAK3
  % Ctrl @ 10000 nM: 55 % Ctrl
LOK
  % Ctrl @ 10000 nM: 0 % Ctrl
VEGFR2
  % Ctrl @ 10000 nM: 95 % Ctrl
